Test results taken from patent publication US20040172685A1, “Method of using MAPK4 and orthologues thereof to control plant disease resistance and plant growth” (priority 1999, published 2004).

Assays:
[1] = system: PDF1.2 mRNA; test: MeJA treatment of plants, RNA gel blot of JA-responsive PDF1.2 mRNA; assay type: in vivo, Arabidopsis
[2] = system: THI2.1 mRNA; test: MeJA treatment of plants, RNA gel blot of JA-responsive THI2.1 mRNA; assay type: in vivo, Arabidopsis; details: for THI2.1 mRNA accumulation after MeJA treatment: not shown
[3] = nahG expressing wild type plants

CC/C=C\CC1C(=O)CCC1CC(=O)OC (stereo not drawn) [MeJA, methyl jasmonate]
PDF1.2 mRNA accumulation after MeJA treatment ([1]; mpk4/nahG plants): not inducible | induction of PDF1.2 expression ([1]; mpk4 mutant plants, sprayed with 50 μM MeJA, harvested after 48 hours): failed to induce | PDF1.2 mRNA accumulation after MeJA treatment [1, 3]: induced | THI2.1 mRNA accumulation after MeJA treatment ([2]; mpk4/nahG plants): not inducible | induction of THI2.1 expression ([2]; mpk4 mutant plants, sprayed with 50 μM MeJA, harvested after 48 hours, data not shown): failed to induce | THI2.1 mRNA accumulation after MeJA treatment [2, 3]: induced
